In article PMC12549899 (Nature Communications, 2025):
Values joined by “and” are separate entries in the source; they are usually repeats but may differ in a detail not shown here. Equal values may be shown once. Read-outs that look alike come from different tables or passages of the source.

Molecular target: T1, DrOTOP1 (Danio rerio, UniProt Q7ZWK8)
T1 construct: A previously generated codon-optimized full-length DrOTOP1[8]; (UniProt: Q7ZWK8) construct; expressed in transfected cells; host or cells: HEK-293 (CRL-1573, ATCC)
T1 sequence (Q7ZWK8 1-586): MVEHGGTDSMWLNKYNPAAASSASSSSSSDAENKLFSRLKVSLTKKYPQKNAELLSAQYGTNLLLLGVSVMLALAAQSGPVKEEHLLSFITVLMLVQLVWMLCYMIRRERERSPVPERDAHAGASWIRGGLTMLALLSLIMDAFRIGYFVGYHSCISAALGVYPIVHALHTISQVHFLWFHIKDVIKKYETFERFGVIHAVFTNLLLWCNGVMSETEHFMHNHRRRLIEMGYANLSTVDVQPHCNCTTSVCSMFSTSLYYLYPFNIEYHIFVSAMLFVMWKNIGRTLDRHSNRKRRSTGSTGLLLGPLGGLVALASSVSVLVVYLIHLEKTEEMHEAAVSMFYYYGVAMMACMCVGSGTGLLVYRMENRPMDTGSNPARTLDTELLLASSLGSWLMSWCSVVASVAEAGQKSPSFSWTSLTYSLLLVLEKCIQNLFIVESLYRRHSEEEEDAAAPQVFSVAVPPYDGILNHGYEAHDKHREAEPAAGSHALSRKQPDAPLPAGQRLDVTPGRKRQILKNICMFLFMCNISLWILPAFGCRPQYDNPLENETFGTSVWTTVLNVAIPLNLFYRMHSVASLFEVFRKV
Assay: Whole-cell patch-clamp, inhibition of acid-evoked currents, WT DrOTOP1 expressed in HEK-293 cells
Type: cell-based, zebrafish (Danio rerio)
Set-up: key to inhibition of acid-evoked current, mean (Mean 1): % inhibition = ((I2peak-I1)/I2peak)*100
Conditions: for inhibition at 200 µM: read-out: Inhibition of currents
Description: The 50 molecules identified were individually tested by whole-cell patch-clamp electrophysiology for effects on DrOTOP1 expressed in human embryonic kidney (HEK)−293 cells. […] This approach enabled us to observe the on- and off-responses of each compound. To quantify the effect of each compound, we compared the current magnitude during compound application immediately before wash-off, to the peak inward current following its removal (Supplementary Fig. 2A).
HEK-293 cells (CRL-1573, ATCC) were cultured in DMEM (Thermofisher 11995073) containing 10% fetal bovine serum (Life Technology 16000044) and Penicillin-Streptomycin (100 I.U./mL) and (100 µg/mL), respectively. Cells were transfected with WT DrOTOP1 or mutant DrOTOP1 channels in 35 mm petri dishes, with ~ 500 ng DNA and 2 μL TransIT-LT1 transfection reagent (Mirus Bio Corporation, Cat # MIR2300) following the manufacturer’s protocol. All constructs were subcloned into a pcDNA3.1 vector that adds an N-terminal fusion tag consisting of an octahistidine tag followed by eGFP, a Gly-Thr-Gly-Thr linker and a 3C protease cleavage site ([…]) followed by WT DrOTOP1, WT mOTOP1, WT hOTOP1, or mutated DrOTOP1. Point mutations were generated via In-Fusion Cloning (Takara) using single-stranded DNA primers generated through IDT and sequence confirmed by Sanger sequencing (GeneWiz).
Whole-cell patch-clamp recording was performed as previously described[6],[22],[25]. Recordings were made with an Axopatch 200B amplifier, digitized with a Digidata 1322a 16-bit data acquisition system, acquired with pClamp 8.2 and analyzed with Clampfit 10 (Molecular Devices). Recordings were sampled at 5 kHz and filtered at 1 kHz. Patch Pipettes with resistance of […] were fabricated from borosilicate glass, and only recordings with a giga-Ohm seal were used in analysis. Membrane potential was held at −80 mV for the duration of recordings. At the beginning of recordings and between, cells were washed with Tyrode’s solution (see below). Once a giga-Ohm seal was reached, cells were lifted and placed in front of microcapillary tubes controlled by a Fast-Step perfusion system (Warner Instruments) so that extracellular solutions could be rapidly exchanged during each experiment.
Standard Tyrode’s solution consisted of 145 mM NaCl, 5 mM KCl, MgCl2, 2 mM CaCl2, 20 mM D-Glucose, and 10 mM HEPES (for pH 7.4). All other extracellular patch-clamp solutions contained 160 mM NMDG-Cl, 2 mM CaCl2, and the following buffers: 10 mM HEPES (for pH 7.4), 10 mM MES (for pH 6.5-5.5), 10 mM CHES for pH 10, and 10 mM HomoPIPES for (pH 5.0). pH adjusted with HCl. […] The pipette contained intracellular solution made up of 120 mM Cs-aspartate, 15 mM CsCl, 2 mM Mg-ATP, 5 mM EGTA, 2.4 mM CaCl2 (100 nM free Ca^2+), and 10 mM HEPES with a pH of 7.3. All extracellular solution osmolarity was adjusted to 300 mOsm and intracellular osmolarity was adjusted to 290 mOsm.
All data are presented as mean ± SEM unless otherwise noted, and each data point represents an independent replicant. Inhibition of compounds was quantified as ((I2peak-I1)/(I2peak))*100, where I1 is the current immediately before wash-off and I2peak is the maximum recovered current (Supplementary Fig. 2). Hill coefficients were determined by the following equation: Y = Bmax*X^h/(Kd^h + X^h).

[1] = 10 µM, pH 5, WT DrOTOP1, single cells
[2] = 10 µM, pH 6, WT DrOTOP1, single cells
[3] = 30 µM, pH 5, WT DrOTOP1, single cells
[4] = 30 µM, pH 6, WT DrOTOP1, single cells
[5] = 100 µM, pH 5, WT DrOTOP1, single cells
[6] = 100 µM, pH 6, WT DrOTOP1, single cells
[7] = 200 µM, pH 5.5, WT DrOTOP1, dose-response, single cells
[8] = 300 µM, pH 5.5, WT DrOTOP1, single cells
[9] = HEK293, pH 5, 30 µM, pH 5, WT DrOTOP1, single cells
[10] = HEK293, pH 5.5, 200 µM, pH 5.5, WT DrOTOP1, dose-response, single cells
[11] = HEK293, pH 5.5, 300 µM, pH 5.5, WT DrOTOP1, single cells
[12] = HEK293, pH 6, 10 µM, pH 6, WT DrOTOP1, single cells
[13] = HEK293, pH 6, 30 µM, pH 6, WT DrOTOP1, single cells
[14] = HEK293, pH 6, 100 µM, pH 6, WT DrOTOP1, single cells

## C=C(C)COc1ccccc1NC(=O)c1nc[nH]c1C [C2.2]
0.1 µM, pH 5.5, WT DrOTOP1, single cells
  Inhibition of currents: 2.61% and 0.5081% and 0.05491%
0.3 µM, pH 5.5, WT DrOTOP1, single cells
  Inhibition of currents: 3.209% and 3.843%
1 µM, pH 5, WT DrOTOP1, single cells
  Inhibition of currents: 3.034% and 6.744% and 2.835%
1 µM, pH 5.5, WT DrOTOP1, single cells
  Inhibition of currents: 3.496% and 5.882% and 11.0667%
1 µM, pH 6, WT DrOTOP1, single cells
  Inhibition of currents: 7.93% and 17.0523% and 15.485%
3 µM, pH 5.5, WT DrOTOP1, single cells
  Inhibition of currents: 21.7626% and 20.6603%
[1]
  Inhibition of currents: 57.3692% and 44.5762% and 37.4476% and 30.9804% and 33.0274%
[2]
  Inhibition of currents: 62.6907% and 69.8462% and 72.5518% and 60.5453%
[3]
  Inhibition of currents: 79.1499% and 75.7339% and 78.9474%
30 µM, pH 5.5, WT DrOTOP1, single cells
  Inhibition of currents: 91.4446% and 86.3672% and 87.3001% and 85.4679%
[4]
  Inhibition of currents: 89.6104% and 92.0062%
[5]
  Inhibition of currents: 98.8642% and 100.372%
[6]
  Inhibition of currents: 101.656% and 100.935% and 99.4036%
200 µM compound, HEK-293 cells expressing DrOTOP1, Vm -80 mV, values of single cells, FDA 1-3 = FDA-approved drugs
  Inhibition of pH 5.5-induced currents, screen 2: fully blocked
[7]
  Inhibition of currents: 99.9505% and 99.4475% and 98.9119%
[8]
  Inhibition of currents: 99.8351% and 99.4122% and 98.63%
[9]
  inhibition at 30 µM: 79.1%
HEK293, pH 5, 100 µM, pH 5, WT DrOTOP1, single cells
  inhibition at 100 µM: 99.1%
HEK293, pH 5.5, 0.3 µM, pH 5.5, WT DrOTOP1, single cells
  inhibition at 0.3 µM: 2.64%
HEK293, pH 5.5, 3 µM, pH 5.5, WT DrOTOP1, single cells
  inhibition at 3 µM: 17%
HEK293, pH 5.5, 30 µM, pH 5.5, WT DrOTOP1, single cells
  inhibition at 30 µM: 88.3%
HEK293, pH 5.5, 100 µM, pH 5.5, WT DrOTOP1, single cells
  inhibition at 100 µM: 99.4%
[10]
  inhibition at 200 µM: 100%
[11]
  inhibition at 300 µM: 99.9%
[12]
  inhibition at 10 µM: 62.3%
[13]
  inhibition at 30 µM: 80.7%
[14]
  inhibition at 100 µM: 100%
WT + C2.2, n=8
  Mean, Fig 5N: 31.97
WT DrOTOP1, Supp. Fig 5E stats
  inhibition of acid-evoked current, mean (Mean 1): 99.31
WT DrOTOP1, Supp. Fig 5F stats
  inhibition of acid-evoked current, mean (Mean 1): 65.72
pH 5.0, WT DrOTOP1
  Hill coefficient: 1.53
  IC50: 12.6 µM
pH 5.5, WT DrOTOP1
  Hill coefficient: 1.52 and 1.5
  IC50: 6.67 µM
pH 6.0, WT DrOTOP1
  Hill coefficient: 1.25
  IC50: 5.99 µM and 5.97 µM

## O=C(/C(=N\O)c1ccccc1)c1ccccc1 [C11, benzil monoxime]
[1]
  Inhibition of currents: 4.424% and 3.103%
10 µM, pH 5.5, WT DrOTOP1, single cells or mean
  Inhibition of currents: 3.913% and 2.872% and 1.269% and 1.559%
[2]
  Inhibition of currents: 7.181% and 5.566% and 5.627%
[3]
  Inhibition of currents: 24.2292% and 16.076%
[4]
  Inhibition of currents: 21.9002% and 19.6399% and 27.9569%
[5]
  Inhibition of currents: 50.6107% and 59.4827% and 56.6039% and 73.4375%
[6]
  Inhibition of currents: 58.9165% and 51.9948% and 54.7438% and 59.958%
200 µM compound, HEK-293 cells expressing DrOTOP1, Vm -80 mV, values of single cells
  Inhibition of pH 5.5-induced currents, screen 1: nearly fully inhibited
200 µM, pH 5, WT DrOTOP1, single cells
  Inhibition of currents: 88.3451% and 83.853%
[7]
  Inhibition of currents: 92.006% and 94.7798% and 86.5734%
200 µM, pH 6, WT DrOTOP1, single cells
  Inhibition of currents: 84.9844% and 81.9304% and 93.4599%
300 µM, pH 5, WT DrOTOP1, single cells
  Inhibition of currents: 96.0707% and 96.7562%
[8]
  Inhibition of currents: 100.665% and 98.5727% and 97.2447%
300 µM, pH 6, WT DrOTOP1, single cells
  Inhibition of currents: 97.5242% and 103.48%
HEK293, pH 5, 10 µM, pH 5, WT DrOTOP1, single cells
  inhibition at 10 µM: 3.81%
[9]
  inhibition at 30 µM: 16.2%
HEK293, pH 5, 200 µM, pH 5, WT DrOTOP1, single cells
  inhibition at 200 µM: 80.8%
HEK293, pH 5, 300 µM, pH 5, WT DrOTOP1, single cells
  inhibition at 300 µM: 101%
[10]
  inhibition at 200 µM: 96.6%
[11]
  inhibition at 300 µM: 102%
[12]
  inhibition at 10 µM: 5.56%
[13]
  inhibition at 30 µM: 19%
[14]
  inhibition at 100 µM: 68.6%
HEK293, pH 6, 200 µM, pH 6, WT DrOTOP1, single cells
  inhibition at 200 µM: 89.5%
HEK293, pH 6, 300 µM, pH 6, WT DrOTOP1, single cells
  inhibition at 300 µM: 99.8%
pH 5.0, WT DrOTOP1
  Hill coefficient: 1.88
  IC50: 75.2 µM
pH 5.5, WT DrOTOP1
  Hill coefficient: 2.2 and 2.21
  IC50: 76 µM and 76.3 µM
pH 6.0, WT DrOTOP1
  Hill coefficient: 1.67
  IC50: 71.5 µM
